The test system of data set [1] is V79 cells. The data set is described as follows: Inhibitory effect on colony formation of V79 cells in vitro. The format is cell-based, Chinese hamster. The following applies: Cricetulus griseus, 96 hours with sample, read-out: 90% inhibitory concentration (IC90). The method, then: (II) Inhibitory effect on Colony Formation of V79 Cells in Vitro:
V79 cells established from Chinese hamster lung fibroblastoma were cultured routinely on plastic dishes (.phi. 60 mm) in RPMI 1640 medium supplemented with 10% fetal calf serum and kanamycin (0.1 mg/ml). Each confluent culture was then trypsinized by the addition of 1 ml of trypsin-EDTA solution (supplied by the firm GIBCO) for 5 minutes at 37° C. in an incubator supplied with humidified air containing 5% CO2.
Homogeneous suspension of V79 cells thus obtained was diluted to 100, 200 and 400 viable cells/ml with the medium, and 1 ml each of them was transferred to other plastic dishes (.phi. 60 mm) containing 1.85 ml of the medium, and diluted to 100, 200 and 400 viable cells/dish.
Each test sample was dissolved in DMSO at the concentration of 20 mM and diluted with the medium to the final concentration of 2×10^-3 -2×10^-10 mM.
Each test dish was kept for 24 hours at 37° C. in an incubator supplied with humidified air containing 5% CO2, and was further cultured for 96 hours after 150 μl of the sample solution was added thereto.
The cells were gently washed once with Mg- and Ca-free phosphate-buffered saline [PBS(-)] and fixed with 1 ml of 3.5% HCHO-PBS(-) solution for 2 hours, then stained with a crystal violet ethanol solution.
The 90% inhibitory concentration (IC90) was calculated by comparing the number of visible colonies on the sample dish with that on the control dish.

A short description of data set [2]: Acute toxicity (LD50). The settings on record: mouse, in vivo, ip; intraperitoneal, suspended in saline with 1% HPC, observed 14 days. As for the experimental part:
The acute toxicity of the compounds of the present invention was examined by the following test.
The test group to which the compound of the present invention was administered consisted of five mice. Six weeks old male mice (ddY, 30±2 g of body weight) were employed as test animals.

Data set [3] has as its system P388 lymphocytic leukemia. In words: Growth inhibition of tumor cells of P388 lymphocytic leukemia in vitro. The format is cell-based, mouse (CDF1). The following applies: Mus musculus, 48 hours at 37° C., read-out: 50% Inhibitory concentration of cell growth (IC50). The method, then:
(I) Growth Inhibition of Tumor Cells of P388 Lymphocytic Leukemia in Vitro:
Tumor cells were collected aseptically with capillary tube from ascites in CDF1 female mice transplanted intraperitoneally with 1×10^6cells of P388 lymphocytic leukemia 5 days before. Cell suspension was prepared at 5×10^4 cells/0.5 ml in a RPMI1640 medium supplemented with 10% fetal calf serum, kanamycin (0.1 mg/ml) and 2-hydroxyethyldisulfide (0.01 mM). Each test sample was dissolved or suspended in the medium at a concentration of 1×10^-1 -1×10^-5 mM.
A test tube with Molton stopper loosely involving 0.5 ml each of the cell suspension and the sample suspension was kept for 48 hours at 37° C. in an incubator supplied with air containing 5% carbon dioxide. […] The cells harvested therefrom was counted by using of a Coulter Counter and the inhibition of cell growth was calculated by the following formula:
Growth Inhibition (%)=(1-T/C)×100
T: number of cells in the culture containing test sample
C: number of cells in the culture of control

For data set [4], the system named is P388 lymphocytic leukemia. In words: Increase in life span on P388 lymphocytic leukemia tumor-transplanted mouse. The class given is in vivo, mouse (CDF1). The settings on record: P388, ip, 24 h, intraperitoneal, day 1 and 5th day after transplantation, read-out: Rate of increase in life span (ILS). As for the experimental part: (III) Increase in Life Span on P388 Lymphocytic Leukemia Tumor-transplantedMouse:
The treated group to which the test sample was administered consisted of seven mice, while the control group consisted of ten mice. Six weeks old male mice (CDF1, 25±2 g of body weight) were employed as host animals.
Tumor cells (1.0×10^6) of P388 lymphocytic leukemia were transplanted intraperitoneally into each mouse. The treatment was effected one day after the transplantation and on 5th day by administering prescribed dose of each test sample intraperitoneally to the mice.
Antitumor activity of the test sample was evaluated by the rate of increase in life span (ILS) which was calculated with the following formula.
T': median survival time of treated mice
C': median survival time of control mice

Each structure is given as a SMILES string.

`Cc1cccc(C(=O)OCN2C(=O)CN([C@@H](C)[C@@H](C)N3CC(=O)NC(=O)C3)CC2=O)c1` (relative stereo) [Sample 14, erythro-2-[4-(3-toluoyloxmethyl)-3,5-dioxopiperazin-1-yl]-3-(3,5-dioxopiperazine-1-yl)butane]: the IC90 in data set [1] was determined as 0.051 nM. This compound also returned an LD50 at 336 h in data set [2] of 6.7 to 10 mg/kg. Further, in data set [3], the IC50 came out at 13 nM. Further, the ILS at 2.3 mg/kg in data set [4] (daily dose 2.3 mg/kg) was determined as 199%.

Consider `CC(C)COC(=O)OCN1C(=O)CN([C@H](C)[C@H](C)N2CC(=O)N(COC(=O)OCC(C)C)C(=O)C2)CC1=O` [Sample 7, meso-2,3-bis(4-isobutoxycarbonyloxymethyl-3,5-dioxopiperazin-1-yl)butane], for which, in data set [1], the IC90 was found to be 0.0045 nM. Moreover, the IC50 in data set [3] was found to be 84 nM. Further, the ILS at 3 mg/kg in data set [4] (daily dose 3.0 mg/kg) is 104%.

For the origin of these results see patent US4868303A, “Bis-dioxopiperazine derivatives” (Zenyaku Kogyo Kabushiki Kaisha, priority 1986, dated 1989).
